Measured values published in PubChem BioAssay (NCI).
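Test compounds were applied to cells in 96-well plates for 48 hours at 5 doses. GI50 = concentration required for 50% inhibition of growth. TGI marks complete inhibition of growth.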

Tests used:
Test in all cases: growth of human tumour cells (NCI), 48 h
[1] = test system: CAKI-1 renal
[2] = test system: MDA-MB-435
[3] = test system: M14 melanoma
[4] = test system: SK-MEL-28 melanoma
[5] = test system: HL-60(TB) leukemia
[6] = test system: OVCAR-8 ovarian
[7] = test system: SN12C renal
[8] = test system: T-47D breast
[9] = test system: HCT-15 colon
[10] = test system: U251 CNS
[11] = test system: UACC-62 melanoma
[12] = test system: SF-268 CNS
[13] = test system: MCF7 breast
[14] = test system: NCI-H226 lung
[15] = test system: COLO 205 colon
[16] = test system: MALME-3M melanoma
[17] = test system: OVCAR-5 ovarian
[18] = test system: RPMI-8226 leukemia
[19] = test system: NCI-H23 lung
[20] = test system: HOP-92 NSCLC
[21] = test system: NCI/ADR-RES ovarian
[22] = test system: SW-620 colon
[23] = test system: DU-145 prostate
[24] = test system: CCRF-CEM leukemia
[25] = test system: A498 renal
[26] = test system: SK-MEL-2 melanoma
[27] = test system: SNB-75 CNS
[28] = test system: HOP-62 NSCLC
[29] = test system: SNB-19 CNS
[30] = test system: 786-0 renal
[31] = test system: LOX IMVI melanoma
[32] = test system: HS 578T breast
[33] = test system: K-562 leukemia
[34] = test system: SR leukemia
[35] = test system: ACHN renal
[36] = test system: TK-10 renal
[37] = test system: KM12 colon
[38] = test system: HCC-2998 colon
[39] = test system: IGROV1 ovarian
[40] = test system: PC-3 prostate
[41] = test system: SK-MEL-5 melanoma
[42] = test system: EKVX NSCLC
[43] = test system: NCI-H460 lung
[44] = test system: MDA-MB-231 breast
[45] = test system: SF-295 CNS
[46] = test system: OVCAR-3 ovarian
[47] = test system: SF-539 CNS
[48] = test system: A549 NSCLC
[49] = test system: MOLT-4 leukemia
[50] = test system: HT29 colon
[51] = test system: RXF 393 renal
[52] = test system: UO-31 renal
[53] = test system: UACC-257 melanoma
[54] = test system: NCI-H522 lung
[55] = test system: SK-OV-3 ovarian
[56] = test system: BT-549 breast
[57] = test system: OVCAR-4 ovarian
[58] = test system: HCT-116 colon

COc1cc2c(F)nccc2cc1C(=O)N[C@@H](c1ccc(F)c(Cl)c1)[C@@H]1C[C@@H](O)CN1
GI50 [1]: 0.355 µM
TGI [1]: 14.6 µM
GI50 [2]: 2 µM
TGI [2]: 17 µM
GI50 [3]: 10.5 µM
TGI [3]: 23.2 µM
GI50 [4]: 4.48 µM
TGI [4]: 20.2 µM
GI50 [5]: 2.11 µM
TGI [5]: 5.61 µM
GI50 [6]: 13.2 µM
TGI [6]: 28.9 µM
GI50 [7]: 8.08 µM
TGI [7]: 22.2 µM
GI50 [8]: 0.0552 µM
TGI [8]: 21.3 µM
GI50 [9]: 0.838 µM
TGI [9]: 16.4 µM
GI50 [10]: 1.49 µM
TGI [10]: 17.8 µM
GI50 [11]: 0.514 µM
TGI [11]: 16.9 µM
GI50 [12]: 3.64 µM
TGI [12]: 21.6 µM
GI50 [13]: 0.575 µM
TGI [13]: 12.1 µM
GI50 [14]: 5.99 µM
TGI [14]: 24.4 µM
GI50 [15]: 3.1 µM
TGI [15]: 19.4 µM
GI50 [16]: 0.716 µM
TGI [16]: 15.4 µM
GI50 [17]: 13.1 µM
TGI [17]: 45.6 µM
GI50 [18]: 7.72 µM
TGI [18]: 40.1 µM
GI50 [19]: 11.1 µM
TGI [19]: 26 µM
GI50 [20]: 0.291 µM
TGI [20]: 7.83 µM
GI50 [21]: 14 µM
TGI [21]: 47 µM
GI50 [22]: 6.39 µM
TGI [22]: 23.6 µM
GI50 [23]: 6.84 µM
TGI [23]: 24 µM
GI50 [24]: 0.299 µM
TGI [24]: > 42 µM
GI50 [25]: 0.0301 µM
TGI [25]: 1.89 µM
GI50 [26]: 11.4 µM
TGI [26]: 25.2 µM
GI50 [27]: 0.074 µM
TGI [27]: 1.51 µM
GI50 [28]: 7.09 µM
TGI [28]: 25.3 µM
GI50 [29]: 0.847 µM
TGI [29]: 18.5 µM
GI50 [30]: 0.076 µM
TGI [30]: 11.5 µM
GI50 [31]: 10.2 µM
TGI [31]: 22.4 µM
GI50 [32]: 0.0715 µM
TGI [32]: 2.41 µM
GI50 [33]: 3.87 µM
TGI [33]: > 78.4 µM
TGI [34]: > 41.9 µM
GI50 [35]: 9.59 µM
TGI [35]: 22.3 µM
GI50 [36]: 0.279 µM
TGI [36]: 14.1 µM
GI50 [37]: 1.69 µM
TGI [37]: 19.3 µM
GI50 [38]: 0.875 µM
TGI [38]: 19.5 µM
GI50 [39]: 0.0573 µM
TGI [39]: 11.4 µM
GI50 [40]: 0.54 µM
TGI [40]: > 43.3 µM
GI50 [41]: 14.7 µM
TGI [41]: 28.1 µM
GI50 [42]: 2.02 µM
TGI [42]: 17.8 µM
GI50 [43]: 0.623 µM
TGI [43]: 15.8 µM
GI50 [44]: 11.3 µM
TGI [44]: 25 µM
GI50 [45]: 0.131 µM
TGI [45]: 13.2 µM
GI50 [46]: 8.43 µM
TGI [46]: 24.7 µM
GI50 [47]: 0.0677 µM
TGI [47]: 11.1 µM
GI50 [48]: 3.14 µM
TGI [48]: 39.6 µM
GI50 [49]: 0.188 µM
TGI [49]: > 41.6 µM
GI50 [50]: 2.35 µM
TGI [50]: 19.6 µM
GI50 [51]: 0.0362 µM
TGI [51]: 0.268 µM
GI50 [52]: 0.491 µM
TGI [52]: 15.4 µM
GI50 [53]: 1.33 µM
TGI [53]: 19.6 µM
GI50 [54]: 12 µM
TGI [54]: 26.7 µM
GI50 [55]: 0.268 µM
TGI [55]: 13.7 µM
GI50 [56]: 0.487 µM
TGI [56]: 4.81 µM
GI50 [57]: 8.59 µM
TGI [57]: 24.6 µM
GI50 [58]: 3.31 µM
TGI [58]: 17.2 µM

COC(=O)C(Cc1ccccc1)NC(=O)C(CCC(=O)OCc1ccccc1)NC(=O)OC(C)(C)C (stereo not drawn)
TGI [1]: > 100 µM
TGI [2]: > 100 µM
TGI [3]: > 100 µM
TGI [4]: > 100 µM
TGI [5]: > 100 µM
TGI [6]: > 100 µM
TGI [7]: > 100 µM
TGI [8]: > 100 µM
TGI [9]: > 100 µM
TGI [10]: > 100 µM
TGI [11]: > 100 µM
TGI [12]: > 100 µM
TGI [13]: > 100 µM
TGI [14]: > 100 µM
TGI [15]: > 100 µM
TGI [16]: > 100 µM
TGI [17]: > 100 µM
TGI [18]: > 100 µM
TGI [19]: > 100 µM
TGI [20]: > 100 µM
TGI [21]: > 100 µM
TGI [22]: > 100 µM
TGI [23]: > 100 µM
TGI [24]: > 100 µM
TGI [25]: > 100 µM
TGI [26]: > 100 µM
TGI [27]: > 100 µM
TGI [28]: > 100 µM
TGI [29]: > 100 µM
TGI [30]: > 100 µM
TGI [31]: > 100 µM
TGI [32]: > 100 µM
TGI [33]: > 100 µM
TGI [34]: > 100 µM
TGI [35]: > 100 µM
TGI [36]: > 100 µM
TGI [37]: > 100 µM
TGI [38]: > 100 µM
TGI [39]: > 100 µM
TGI [40]: > 100 µM
TGI [41]: > 100 µM
TGI [42]: > 100 µM
TGI [43]: > 100 µM
TGI [44]: > 100 µM
TGI [45]: > 100 µM
TGI [46]: > 100 µM
TGI [47]: > 100 µM
TGI [48]: > 100 µM
TGI [49]: > 100 µM
TGI [50]: > 100 µM
TGI [51]: > 100 µM
TGI [52]: > 100 µM
TGI [53]: > 100 µM
TGI [54]: > 100 µM
TGI [55]: > 100 µM
TGI [56]: > 100 µM
TGI [57]: > 100 µM
TGI [58]: > 100 µM
